Laboratory results taken from patent publication US20080063628A1, “METHODS TO PROMOTE CELL DIFFERENTIATION” (priority 2006, published 2008).

Experiments:
[1] = tested on: amniotic fluid-derived cell line; assay: Two sequential low dose trichostatin A treatments, gene expression by RT-PCR (Example 7); format: cell-based, human; settings: for Gata1 gene expression / HNF (HNF-3 beta) gene expression / Insulin gene expression / Pdx-1 gene expression / sox17 gene expression: 500 nM 0-24 h + 96-120 h
Description: (§1) Several cell lines obtained from different amniotic fluid specimens (see Example 14) and pancreas donors (see Example 13) were tested with similar results. Two lines at similar passage number but derived from different amniotic fluid specimens are shown in Table VII-A and Table VII-B for this example. One of these cell lines was also used in examples 2 and 4 above. In addition, this example also contains comparison data in Table VII-C and Table VII-D for a single pancreatic-derived stromal line grown to early and late passage number.
(§2) Amniotic fluid derived cells or pancreatic-derived stromal cells were seeded into 24-well tissue culture plates at a density of 5000/cm^2 and cultured in AMNIOMAX (Invitrogen) or DMEM with 10% FBS respectively under standard cell culture conditions until confluent. After the cells reached confluency, amniotic fluid derived cells were treated at time 0 hours with a dose of 500 nM trichostatin A, and pancreatic-derived stromal cells were treated with a dose of 1.25 μM trichostatin A solubilized in DMSO and medium. At time 24 hours, cell cultures underwent a complete medium change to remove all traces of trichostatin A. At time 96 hours, cell cultures were re-fed with fresh medium and received a second dose of trichostatin A at the same concentration as used previously. At time 120 hours, cell cultures again underwent a complete medium change and were cultured for an additional 24 hours or […] total incubation time.
(§3) Samples were taken daily for RT-PCR at the times indicated in Table VII-A to D. The culture medium was removed, and samples were rinsed in PBS then collected in RLT with β-mercaptoethanol (Qiagen). RNA was purified using the RNeasy Mini Kit (Qiagen) and RNA quantity and quality were determined using a spectrophotometer. cDNA was made using the iScript cDNA synthesis kit (BioRad).
(§4) Samples of 20 ng cDNA were used in each reaction to determine the expression levels of the following genes in amniotic fluid-derived cells: Gata1, HNF-3 beta, Pdx-1, insulin, and Sox17. Similarly, samples of 20 ng cDNA were used in each reaction to determine the expression level of the following genes in pancreatic-derived cells: glucagon, HNF-3 beta, insulin and Pdx-1. Real-Time PCR was performed on the Applied Biosystems 7500, and data was analyzed using the accompanying software according to the methods described in Example 15.
(§5) Real-time PCR amplifcation and quantitative analysis. Unless otherwise stated, all reagents were purchased from Applied Biosystems. Real-time PCR reactions were performed using the ABI PRISM™ 7500 Sequence Detection System. TAQMAN™ FAST UNIVERSAL PCR MASTER MIX™ (ABI, CA) was used with 20 ng of reverse transcribed RNA in a total reaction volume of 20 μl. Each cDNA sample was run in duplicate to allow correction of pipetting errors. Primers and FAM-labeled TAQMAN™ probes were used at concentrations of 200 nM. The level of expression for each target gene was normalized using the pre-developed Applied Biosystem's human glyceraldehyde-3-phosphate dehydrogenase (GAPDH) endogenous control kit. Primers and probes were designed using either ABI PRISM PRIMER EXPRESS™ software or a pre-developed ABI gene analysis kit. For each gene, either one of the primers or the probe were designed to be exon-boundary spanning. This eliminated the possibility of the primers/probe binding to any genomic DNA present. The primer and probe sets are listed as follows: Pdx-1 (Hs00426216), Insulin (Hs00355773), glucagon (Hs00174967), and FoxA2 (HNF 3-beta) (Hs00232764). The remaining primers were designed using the PRIMERS program (ABI, CA). After an initial 95° C. incubation for 20 sec, samples were cycled 40 times in two stages: a denaturation step at 95° C. for 3 sec, followed by an annealing/extension step at 60° C. for 30 sec. […]

[2] = tested on: late passage (P14) pancreatic-derived stromal cell line; assay: as above; format: cell-based, human; settings: for HNF (HNF-3 beta) gene expression / Insulin gene expression / Pdx-1 gene expression / glucagon gene expression: 1.25 μM 0-24 h + 96-120 h
Description: as §1, §2, §3, §4, §5

[3] = 1.25 μM, after the second treatment cycle
[4] = 1.25 μM, following first treatment

SMILES: CC(/C=C/C(=O)NO)=C\[C@@H](C)C(=O)c1ccc(N(C)C)cc1 [trichostatin A]
- Insulin RT-PCR detection cycle ([1]; 0.5 μM, by 48 hours (after removal at 24 h)): 36 cycles
- HNF-3 beta RT-PCR detection cycle ([1]; 0.5 μM, following the first treatment): 33 cycles
- HNF-3 beta RT-PCR detection cycle ([1]; 0.5 μM, following the second treatment): 37 cycles
- Pdx-1 RT-PCR detection cycle ([1]; 0.5 μM, for 24 hours following the addition): 37 cycles
- Gata1 gene expression ([1]; 24 hrs): nd (not detectable at >40 cycles by RT-PCR)
- HNF (HNF-3 beta) gene expression ([1]; 24 hrs): +++ (detectable at less than 35 cycles by RT-PCR with SE less than 0.9)
- Insulin gene expression ([1]; 24 hrs): nd (not detectable at >40 cycles by RT-PCR)
- Pdx-1 gene expression ([1]; 24 hrs): + (detectable between 35 and 40 cycles by RT-PCR)
- sox17 gene expression ([1]; 24 hrs): +++ (detectable at less than 35 cycles by RT-PCR with SE less than 0.9)
- Gata1 gene expression ([1]; 48 hrs): nd (not detectable at >40 cycles by RT-PCR)
- HNF (HNF-3 beta) gene expression ([1]; 48 hrs): +++ (detectable at less than 35 cycles by RT-PCR with SE less than 0.9)
- Insulin gene expression ([1]; 48 hrs): + (detectable between 35 and 40 cycles by RT-PCR)
- Pdx-1 gene expression ([1]; 48 hrs): nd (not detectable at >40 cycles by RT-PCR)
- sox17 gene expression ([1]; 48 hrs): +++ (detectable at less than 35 cycles by RT-PCR with SE less than 0.9)
- Gata1 gene expression ([1]; 72 hrs): nd (not detectable at >40 cycles by RT-PCR)
- HNF (HNF-3 beta) gene expression ([1]; 72 hrs): + (detectable between 35 and 40 cycles by RT-PCR)
- Insulin gene expression ([1]; 72 hrs): + (detectable between 35 and 40 cycles by RT-PCR)
- Pdx-1 gene expression ([1]; 72 hrs): nd (not detectable at >40 cycles by RT-PCR)
- sox17 gene expression ([1]; 72 hrs): +++ (detectable at less than 35 cycles by RT-PCR with SE less than 0.9)
- Gata1 gene expression ([1]; 96 hrs): nd (not detectable at >40 cycles by RT-PCR)
- HNF (HNF-3 beta) gene expression ([1]; 96 hrs): nd (not detectable at >40 cycles by RT-PCR)
- Insulin gene expression ([1]; 96 hrs): + (detectable between 35 and 40 cycles by RT-PCR)
- Pdx-1 gene expression ([1]; 96 hrs): nd (not detectable at >40 cycles by RT-PCR)
- sox17 gene expression ([1]; 96 hrs): +++ (detectable at less than 35 cycles by RT-PCR with SE less than 0.9)
- Gata1 gene expression ([1]; 120 hrs): nd (not detectable at >40 cycles by RT-PCR)
- HNF (HNF-3 beta) gene expression ([1]; 120 hrs): + (detectable between 35 and 40 cycles by RT-PCR)
- Insulin gene expression ([1]; 120 hrs): + (detectable between 35 and 40 cycles by RT-PCR)
- Pdx-1 gene expression ([1]; 120 hrs): nd (not detectable at >40 cycles by RT-PCR)
- sox17 gene expression ([1]; 120 hrs): +++ (detectable at less than 35 cycles by RT-PCR with SE less than 0.9)
- Gata1 gene expression ([1]; 144 hrs): nd (not detectable at >40 cycles by RT-PCR)
- HNF (HNF-3 beta) gene expression ([1]; 144 hrs): + (detectable between 35 and 40 cycles by RT-PCR)
- Insulin gene expression ([1]; 144 hrs): + (detectable between 35 and 40 cycles by RT-PCR)
- Pdx-1 gene expression ([1]; 144 hrs): nd (not detectable at >40 cycles by RT-PCR)
- sox17 gene expression ([1]; 144 hrs): +++ (detectable at less than 35 cycles by RT-PCR with SE less than 0.9)
- HNF (HNF-3 beta) gene expression ([2]; 24 hrs): + (detectable between 35 and 40 cycles by RT-PCR)
- Insulin gene expression ([2]; 24 hrs): nd (not detectable at >40 cycles by RT-PCR)
- Pdx-1 gene expression ([2]; 24 hrs): +++ (detectable at less than 35 cycles by RT-PCR with SE less than 0.9)
- glucagon gene expression ([2]; 24 hrs): +++ (detectable at less than 35 cycles by RT-PCR with SE less than 0.9)
- HNF (HNF-3 beta) gene expression ([2]; 48 hrs): nd (not detectable at >40 cycles by RT-PCR)
- Pdx-1 gene expression ([2]; 48 hrs): nd (not detectable at >40 cycles by RT-PCR)
- glucagon gene expression ([2]; 48 hrs): +++ (detectable at less than 35 cycles by RT-PCR with SE less than 0.9)
- HNF (HNF-3 beta) gene expression ([2]; 72 hrs): nd (not detectable at >40 cycles by RT-PCR)
- Insulin gene expression ([2]; 72 hrs): nd (not detectable at >40 cycles by RT-PCR)
- Pdx-1 gene expression ([2]; 72 hrs): nd (not detectable at >40 cycles by RT-PCR)
- glucagon gene expression ([2]; 72 hrs): + (detectable between 35 and 40 cycles by RT-PCR)
- HNF (HNF-3 beta) gene expression ([2]; 96 hrs): nd (not detectable at >40 cycles by RT-PCR)
- Insulin gene expression ([2]; 96 hrs): nd (not detectable at >40 cycles by RT-PCR)
- Pdx-1 gene expression ([2]; 96 hrs): nd (not detectable at >40 cycles by RT-PCR)
- glucagon gene expression ([2]; 96 hrs): nd (not detectable at >40 cycles by RT-PCR)
- HNF (HNF-3 beta) gene expression ([2]; 120 hrs): +++ (detectable at less than 35 cycles by RT-PCR with SE less than 0.9)
- Insulin gene expression ([2]; 120 hrs): nd (not detectable at >40 cycles by RT-PCR)
- Pdx-1 gene expression ([2]; 120 hrs): ++ (detectable at less than 35 cycles by RT-PCR with SE greater than 0.9)
- HNF (HNF-3 beta) gene expression ([2]; 144 hrs): nd (not detectable at >40 cycles by RT-PCR)
- Insulin gene expression ([2]; 144 hrs): nd (not detectable at >40 cycles by RT-PCR)
- Pdx-1 gene expression ([2]; 144 hrs): nd (not detectable at >40 cycles by RT-PCR)
- glucagon gene expression ([2]; 144 hrs): + (detectable between 35 and 40 cycles by RT-PCR)
- HNF-3 beta RT-PCR detection cycle [2, 3]: 34 cycles
- Pdx-1 RT-PCR detection cycle [2, 3]: 34 cycles
- glucagon RT-PCR detection cycle [2, 3]: 36 cycles
- HNF-3β RT-PCR detection cycle [2, 4]: 33 cycles
- Pdx-1 RT-PCR detection cycle [2, 4]: 33 cycles
- glucagon RT-PCR detection cycle [2, 4]: 33 cycles
